Results: patent publication EP2735339B1, “Extract and isolated compounds from Drechslera rostrata and/or Eurotium tonophilum for use as anti-leishmania-major agents” (King Saud University, priority 2012, dated 2014)
pIC50: −log10 of the molar value. Converted amounts (≈) assume the structure as drawn. Read-outs that look alike come from different tables or passages of the source.

Columns and labels:
[1] = system: Promastigotes of the reference strain of Leishmania major; assay: In vitro anti-leishmanial activity, MTT assay on promastigotes; type: cell-based; settings: 72 hours, 26 °C
Procedure: Parasite: Promastigotes of the reference strain of Leishmania major were grown in RPMI-1640 medium supplemented with 10.000 Unites penicillin 10 µg of treptomycin/ml and 10 % heat inactivated fetal calf serum in 50 ml Nunc flasks at 26 °C in a dark environment. All experiments were performed with parasite cultures in the stationary phase by allowing them to grow for seven days.
Promastigotes were resuspended in fresh medium to achieve 10^6 parasites/ml and were seeded in 96-well Nunc culture plate, each well containing 100 µl medium with different concentrations of total extracts for both fungi (Drechslera rostrata and Eurotium tonophilum) in addition to the four isolated compounds. Control wells received only culture medium. The plates were incubated in 26 °C for 72 hours and Promastigotes viability was evaluated by the quantitative colorimetric MTT assay. The alteration of MTT to the formazan product by the mitochondrial electron transport chain is an indicator of cell viability, and a decrease in the amount of MTT converted indicated toxicity to the cell.
Briefly, the MTT labeling reagent was added to each well to the final concentration of 0.25 mg/ml. After incubation for 3 hours at 26 °C, DMSO was added to dissolve the formazan crystals and obtain a homogeneous blue solution suitable for measurement of the absorbance with an enzyme-linked immunosorbent assay plate reader (wave length 492).
Percent growth inhibition of the parasite was calculated by the following formula: % of inhibition = ((OD control-OD drugs))/(OD control) X 100 [formula]
The concentration inhibiting 50 % of the parasite growth (IC50) was calculated after evaluating percent growth inhibition at different concentrations. Reference compound was Pentostam.
Stock solutions of the total extracts , compounds, plus control drugs, were prepared at a concentration of 20 mg mL-1 in DMSO (Sigma, UK), and diluted to appropriate concentrations prior to assays. IC50 values were calculated with MSXLFIT (IDBS, UK) Djalma et al., J. Braz. Chem. Soc. Vol. 20, No. 4, 644-651, (2009).

Leishmania major = assay: In vivo anti-leishmanial activity, lesion size in infected mice under oral treatment; settings: for Mean + SD lesion size(mm), day 1 of treatment: day 1 of oral treatment; for Mean + SD lesion size(mm), day 1 of treatment / Mean + SD lesion size(mm), day 4 of treatment / Mean + SD lesion size(mm), day 8 of treatment / Mean + SD lesion size(mm), day 11 of treatment / Mean + SD lesion size(mm), day 15 of treatment / Mean + SD lesion size(mm), day 18 of treatment / Mean + SD lesion size(mm), day 25 of treatment / Mean + SD lesion size(mm), day 28 of treatment: mice infected with L.major, n = 6; for Mean + SD lesion size(mm), day 4 of treatment: day 4 of oral treatment; for Mean + SD lesion size(mm), day 8 of treatment: day 8 of oral treatment; for Mean + SD lesion size(mm), day 11 of treatment: day 11 of oral treatment; for Mean + SD lesion size(mm), day 15 of treatment: day 15 of oral treatment; for Mean + SD lesion size(mm), day 18 of treatment: day 18 of oral treatment; for Mean + SD lesion size(mm), day 25 of treatment: day 25 of oral treatment; for Mean + SD lesion size(mm), day 28 of treatment: day 28 of oral treatment
Procedure: Balb/c mice ([…]) males were provided by Girls collage of science, Zoology department, King Saud University, Riyadh, KSA). The animals were housed in standard plastic cages and were maintained on standard feed and water ad libitum.
Each mouse was inoculated in the lumbar area with 10^7 of stationary phase Leishmania major suspended in 0.1 ml RPMI medium. The mice were kept at the animal house for 3-4 weeks till the lesion was observed. Extracts were administrated orally (400 mg/kg mouse body weight) daily until complete recovery from the lesion. Liver functions tests and histopathological examination of organs (liver, spleen and kidney) were done at the end of study.

Leishmania amazonensis = settings: growth of Leishmania amazonensis; cited from earlier work
Leishmania spp = settings: growth of Leishmania spp; cited from earlier work
leishmania [2] = settings: against leishmania; cited from earlier work
leishmania [3] = settings: antileishmanial activity; cited from earlier work

## Diisooctylphthalate [Compound H2]
[1]
  IC50: 3.2 µg/mL
Leishmania major
  Mean + SD lesion size(mm), day 1 of treatment: 9.13±1.2 mm
  Mean + SD lesion size(mm), day 4 of treatment: 6.18±1.2 mm
  Mean + SD lesion size(mm), day 8 of treatment: 4.15±1.2 mm
  Mean + SD lesion size(mm), day 11 of treatment: 1.11±1.2 mm
  Mean + SD lesion size(mm), day 15 of treatment: 0.21±1.5 mm
  Mean + SD lesion size(mm), day 18 of treatment: zero
  Mean + SD lesion size(mm), day 25 of treatment: zero
  Mean + SD lesion size(mm), day 28 of treatment: zero

## 1,8-Dihydroxy-3-methoxy-6-methyl-anthraquinone [Compound H3]
[1]
  IC50: 19.38 µg/mL
Leishmania major
  Mean + SD lesion size(mm), day 1 of treatment: 9.23±1.4 mm
  Mean + SD lesion size(mm), day 4 of treatment: 7.28±2.1 mm
  Mean + SD lesion size(mm), day 8 of treatment: 5.15±1.4 mm
  Mean + SD lesion size(mm), day 11 of treatment: 3.41±1.8 mm
  Mean + SD lesion size(mm), day 15 of treatment: 2.31±2.6 mm
  Mean + SD lesion size(mm), day 18 of treatment: zero
  Mean + SD lesion size(mm), day 25 of treatment: zero
  Mean + SD lesion size(mm), day 28 of treatment: zero

## C=C1C(=O)O[C@H]2C[C@@](C)(O)C3=CC[C@](C)(O)[C@@H]3C[C@H]12 [guaianolide]
Leishmania amazonensis
  IC50: 2.6 µg/mL (≈ 9.84 µM)

## O.O.O.O.O.O.O.O.O.O=C([O-])[C@@H]1[O][Sb](=[O])([O][Sb]2(=[O])[O][C@H]([C@H](O)CO)[C@H](O)[C@H](C(=O)[O-])[O]2)[O][C@H]([C@H](O)CO)[C@@H]1O.[Na+].[Na+].[Na+] (stereo partly shown) [Pentostam, reference compound]
Leishmania major
  Mean + SD lesion size(mm), day 1 of treatment: 9.56±1.3 mm
  Mean + SD lesion size(mm), day 4 of treatment: 8.98±2.0 mm
  Mean + SD lesion size(mm), day 8 of treatment: 7.45±1.8 mm
  Mean + SD lesion size(mm), day 11 of treatment: 6.9±1.3 mm
  Mean + SD lesion size(mm), day 15 of treatment: 5.39±3.1 mm
  Mean + SD lesion size(mm), day 18 of treatment: 4.32±2.1 mm
  Mean + SD lesion size(mm), day 25 of treatment: 3.30±2.1 mm
  Mean + SD lesion size(mm), day 28 of treatment: 2.61±2.5 mm
Leishmania major; standard drug, 28 days
  complete heeling after 28 days: did not show complete heeling

## OCC(O)C(O)C(O)C(O)CO (stereo not shown) [Compound H1, Hexane-1,2,3,4,5,6-hexol]
[1]; read-out: IC50
  IC50: 6.5 µg/mL (≈ 35.7 µM)
Leishmania major
  Mean + SD lesion size(mm), day 1 of treatment: 9.95±1.5 mm
  Mean + SD lesion size(mm), day 4 of treatment: 7.19±1.2 mm
  Mean + SD lesion size(mm), day 8 of treatment: 4.85±1.2 mm
  Mean + SD lesion size(mm), day 11 of treatment: 2.78±1.7 mm
  Mean + SD lesion size(mm), day 15 of treatment: 1.21+1.1 mm
  Mean + SD lesion size(mm), day 18 of treatment: zero
  Mean + SD lesion size(mm), day 25 of treatment: zero
  Mean + SD lesion size(mm), day 28 of treatment: zero

## C=C1CCC[C@H]2[C@]1(CC[C@@]1(C)C3=CCCC(C)(C)[C@@H]3CC[C@@H]1C)CC[C@H](C)[C@]2(C)Cc1cc(OS(=O)(=O)O)ccc1OS(=O)(=O)O [isoakaterpin]
Leishmania spp
  pIC50: 5.98

## C=CCCC/C=C\C/C=C\CCCCCCCc1cc(O)cc(O)c1 [5-heptadeca-8'Z,11'Z,16-trienylresorcinol]
Leishmania [2]
  IC50: 3.6 µg/mL (≈ 10.5 µM)

## C/C=C(/C)C(=O)OC[C@H]1C2=C(C[C@H]3[C@H]4C5=C(C(=O)C(C)=C(OC)C5=O)[C@H](O)[C@@H](CN13)N4C)C(=O)C(C)=C(OC)C2=O [Renieramycin A]
Leishmania [3]
  IC50: 0.2 µg·mL
